Test results published in patent US10738035B2, “Hepatitis B antiviral agents” (Enanta Pharmaceuticals, Inc., priority 2015, dated 2020).

Legend:
[1] = tested on: hepatitis B virus (HBV); test: HepAD38 antiviral assay (viral product accumulation, EC50); conditions: HePAD38, 120 h, read-out: HepAD38 EC50
Protocol: (§1) Briefly, cells are passaged upon attaining confluency in DMEM/F12 media in the presence of 10% FBS, Penn/Strep, 250 μg/mL G418, and 1 μg/ml tetracycline. Novel compounds are screened by first washing cells three times with PBS to remove tetracycline, and plating in 96 well plates at 35,000 cells/well. Compounds dissolved in DMSO are then diluted 1:200 into wells containing cells. Five days after compound addition, material is harvested for analysis.
On harvest day, virion DNA is obtained by lysing with Sidestep Lysis and Stabilization Buffer and then quantified via quantitative real time PCR. Commercially available ELISA kits are used to quantitate the viral proteins HBsAg (Alpco) or HbeAg (US Biological) by following the manufacturer's recommended protocol after diluting samples to match the linear range of their respective assays.

[2] = Compound toxicity, ATPLite (CC50); conditions: human, HepAD38 cells
Protocol: as §1
Compound toxicity is evaluated by seeding cells at 15,000 cells/well and treating with compound as described above.

| SMILES | EC50 [1] | CC50 at 3 days [2] |
| --- | --- | --- |
| Cn1nc(NC(=O)N2CCC(O)CC2)cc1C(=O)Nc1cc(F)cc(F)c1 [Example 46] | > 10 µM | 10 to 30 µM |
| CC(C)c1ccc(NC(=O)c2cc(NC(=O)N3CCC(O)CC3)nn2C)cc1 [Example 67] | > 10 µM | > 30 µM |
| Cn1nc(C(=O)Nc2cc(F)c(F)c(F)c2)cc1NC(=O)N1CCC(O)CC1 [Example 13] | > 10 µM | > 10 µM |
| CC(C)CN(C)C(=O)Nc1cc(C(=O)Nc2cc(F)c(F)c(F)c2)n(C)n1 [Example 41] | < 1 µM | > 30 µM |
| Cn1nc(NC(=O)NCCO)cc1C(=O)Nc1cc(F)c(F)c(F)c1 [Example 32] | 1 to 10 µM | 10 to 30 µM |
| Cn1nc(NC(=O)N2CCOCC2)cc1C(=O)Nc1cc(F)c(F)c(F)c1 [Example 20] | 1 to 10 µM | > 30 µM |
| COc1cc(NC(=O)c2cc(NC(=O)N3CCC(O)CC3)nn2C)ccc1F [Example 55] | > 10 µM | > 30 µM |
| CN(Cc1ccccc1)C(=O)Nc1cc(C(=O)Nc2cc(F)c(F)c(F)c2)n(C)n1 [Example 23] | 1 to 10 µM | < 10 µM |
| Cn1nc(NC(=O)N2CCC(O)CC2)cc1C(=O)Nc1ccc(F)cc1Cl [Example 59] | > 10 µM | > 30 µM |
| CCCCNC(=O)Nc1cc(C(=O)Nc2cc(F)c(F)c(F)c2)n(C)n1 [Example 31] | 1 to 10 µM | > 30 µM |
| Cn1nc(NC(=O)N2CCC(O)CC2)cc1C(=O)Nc1ccc(C(=O)O)cc1 [Example 74] | > 10 µM | > 30 µM |
| Cn1nc(NC(=O)N2CCC(C)(O)CC2)cc1C(=O)Nc1cc(F)c(F)c(F)c1 [Example 19] | 1 to 10 µM | > 30 µM |
| Cn1nc(NC(=O)N2CCC(O)CC2)cc1C(=O)Nc1ccccc1 [Example 51] | > 10 µM | > 30 µM |
| COC(=O)c1cccc(NC(=O)c2cc(NC(=O)N3CCC(O)CC3)nn2C)c1 [Example 73] | > 10 µM | > 30 µM |
| Cn1c(NC(=O)N2CCC(O)CC2)cnc1C(=O)Nc1cc(F)c(F)c(F)c1 [Example 6] | > 10 µM | > 10 µM |
| Cn1nc(NC(=O)N(CCO)CCO)cc1C(=O)Nc1cc(F)c(F)c(F)c1 [Example 27] | > 10 µM | > 30 µM |
| O=C(Nc1cc(F)c(F)c(F)c1)c1ccc(Cl)c(NS(=O)(=O)N2CCC(O)CC2)c1 [Example 71] | 1 to 10 µM | > 30 µM |
| Cn1nc(NC(=O)NCCS(C)(=O)=O)cc1C(=O)Nc1cc(F)c(F)c(F)c1 [Example 42] | 1 to 10 µM | > 30 µM |
| COCCNC(=O)Nc1cc(C(=O)Nc2cc(F)c(F)c(F)c2)n(C)n1 [Example 24] | 1 to 10 µM | > 30 µM |
| O=S(=O)(c1c(Cl)ccc2c(Nc3cc(F)c(F)c(F)c3)n[nH]c12)N1CCC(O)CC1 [Example 1] | > 10 µM | > 30 µM |

| SMILES | EC50 [1] | CC50 at 3 days [2] |
| --- | --- | --- |
| Cn1nc(NC(=O)N2CCC(O)CC2)cc1C(=O)Nc1ccc(Cl)c(F)c1 [Example 49] | 1 to 10 µM | > 30 µM |
| Cn1nc(NC(=O)N2CCCCC2)cc1C(=O)Nc1cc(F)c(F)c(F)c1 [Example 16] | 1 to 10 µM | < 10 µM |
| CN(C)CCNC(=O)Nc1cc(C(=O)Nc2cc(F)c(F)c(F)c2)n(C)n1 [Example 25] | > 10 µM | > 30 µM |
| Cn1nc(NC(=O)N2CCC(O)CC2)cc1C(=O)Nc1ccc(F)c(C#N)c1 [Example 53] | 1 to 10 µM | > 30 µM |
| Cn1nc(NC(=O)N2CCC(F)(F)CC2)cc1C(=O)Nc1cc(F)c(F)c(F)c1 [Example 18] | 1 to 10 µM | > 30 µM |
| CN(C(=O)Nc1cc(C(=O)Nc2cc(F)c(F)c(F)c2)n(C)n1)C1CC1 [Example 22] | > 10 µM | > 30 µM |
| Cn1nc(NS(=O)(=O)C2CCC(O)CC2)cc1C(=O)Nc1cc(F)c(F)c(F)c1 (centres unmarked) [Example 5] | < 1 µM | > 30 µM |
| Cc1cc(NC(=O)c2cc(NC(=O)N3CCC(O)CC3)nn2C)ccc1F [Example 54] | < 1 µM | < 10 µM |
| COC(=O)c1ccc(NC(=O)c2cc(NC(=O)N3CCC(O)CC3)nn2C)cc1 [Example 72] | > 10 µM | > 30 µM |
| O=S(=O)(c1cc2oc(Nc3cc(F)c(F)c(F)c3)nc2cc1Cl)N1CCC(O)CC1 [Example 4] | 1 to 10 µM | < 10 µM |
| Cn1nc(NC(=O)N2CCC(F)CC2)cc1C(=O)Nc1cc(F)c(F)c(F)c1 [Example 17] | 1 to 10 µM | < 10 µM |
| Cn1nc(NC(=O)N2CCC(O)CC2)cc1C(=O)Nc1ccc(-c2ccccc2)cc1 [Example 70] | > 10 µM | > 30 µM |
| COc1cccc(NC(=O)c2cc(NC(=O)N3CCC(O)CC3)nn2C)c1 [Example 65] | > 10 µM | > 30 µM |
| Cn1nc(NC(=O)N2CCC(O)CC2)cc1C(=O)Nc1cccc(F)c1 [Example 43] | 1 to 10 µM | > 30 µM |
| Cn1nc(NC(=O)N2CCC(O)C2)cc1C(=O)Nc1cc(F)c(F)c(F)c1 (centres unmarked) [Example 29] | 1 to 10 µM | < 10 µM |
| Cn1nc(NS(=O)(=O)N2CCC(OCc3ccccc3)CC2)cc1C(=O)Nc1cc(F)c(F)c(F)c1 [Example 12] | 1 to 10 µM | 10 to 30 µM |
| Cn1nc(NC(=O)N2CCC(O)CC2)cc1C(=O)Nc1ccc(F)c(Cl)c1 [Example 48] | 1 to 10 µM | < 10 µM |
| CC(C)N(C)C(=O)Nc1cc(C(=O)Nc2cc(F)c(F)c(F)c2)n(C)n1 [Example 57] | 1 to 10 µM | < 10 µM |
| O=C(Nc1cc(F)c(F)c(F)c1)c1cc(NC(=O)N2CCC(O)CC2)no1 [Example 9] | > 10 µM | < 10 µM |
| CN(C(=O)Nc1cc(C(=O)Nc2cc(F)c(F)c(F)c2)n(C)n1)C1CCCCC1 [Example 28] | < 1 µM | > 30 µM |

| SMILES | EC50 [1] | CC50 at 3 days [2] |
| --- | --- | --- |
| Cn1nc(NC(=O)NCC2(C)CC2)cc1C(=O)Nc1cc(F)c(F)c(F)c1 [Example 26] | < 1 µM | > 30 µM |
| Cn1nc(NC(=O)N2CCC(O)CC2)cc1C(=O)Nc1ccc(F)cc1F [Example 47] | > 10 µM | > 30 µM |
| Cn1nc(NC(=O)N2CCC(O)CC2)cc1C(=O)Nc1ccc(F)c(F)c1 [Example 44] | 1 to 10 µM | > 30 µM |
| Cn1nc(NC(=O)N2CCC(O)CC2)cc1C(=O)Nc1ccccn1 [Example 61] | > 10 µM | > 30 µM |
| Cn1nc(NC(=O)N2CCC(O)CC2)cc1C(=O)Nc1ccc(O)c(F)c1 [Example 35] | > 10 µM | > 30 µM |
| CC(C)c1cccc(NC(=O)c2cc(NC(=O)N3CCC(O)CC3)nn2C)c1 [Example 68] | > 10 µM | > 10 µM |
| Cn1nc(NC(=O)C2CCC(O)CC2)cc1C(=O)Nc1cc(F)c(F)c(F)c1 (centres unmarked) [Example 14] | 1 to 10 µM | > 30 µM |
| CN(CCCO)C(=O)Nc1cc(C(=O)Nc2cc(F)c(F)c(F)c2)n(C)n1 [Example 39] | 1 to 10 µM | > 30 µM |
| Cn1nc(NC(=O)N2CCC(O)CC2)cc1C(=O)Nc1cccc(F)c1F [Example 45] | 1 to 10 µM | > 30 µM |
| Cn1nc(NC(=O)N2CCC(O)CC2)cc1C(=O)Nc1ccc(O)cc1 [Example 62] | > 10 µM | > 30 µM |
| Cn1nc(NC(=O)N2CCC(O)CC2)cc1C(=O)Nc1cc(F)c(Cl)c(F)c1 [Example 36] | > 10 µM | > 30 µM |
| Cn1nc(NC(=O)N2CCC(O)CC2)cc1C(=O)Nc1ccncc1 [Example 56] | > 10 µM | > 30 µM |
| Cn1nc(NC(=O)N2CCC(O)CC2)cc1C(=O)Nc1ccc(F)c(C(F)(F)F)c1 [Example 52] | 1 to 10 µM | > 30 µM |
| Cn1nc(NC(=O)N2CCC(O)CC2)cc1C(=O)Nc1cccc(O)c1 [Example 63] | > 10 µM | > 30 µM |
| Cn1nc(NC(=O)N2CCC(O)CC2)cc1C(=O)Nc1ccc(F)c(O)c1 [Example 50] | > 10 µM | > 30 µM |
| CCN(C)C(=O)Nc1cc(C(=O)Nc2cc(F)c(F)c(F)c2)n(C)n1 [Example 40] | 1 to 10 µM | < 10 µM |
| Cn1cc(NC(=O)N2CCC(O)CC2)nc1C(=O)Nc1cc(F)c(F)c(F)c1 [Example 10] | > 10 µM | > 30 µM |
| Cn1nc(NC(=O)N2CCC(O)CC2)cc1C(=O)Nc1ccc(C(C)(C)C)cc1 [Example 69] | > 10 µM | > 30 µM |
